Laboratory results published in US20160312179A1 (GLAXOSMITHKLINE INTELLECHTUAL PROPERTY (NO.2) LIMITED, priority 2013, published 2016).
Entries after “also recorded” stand apart in the source; their conditions may differ.

How the values were obtained:
Assay type in all cases: cell-based, Chinese hamster
DG44 CHO [1] = assay: Dose response study in shake flasks: ammonia (NH4+) accumulation and production; conditions: for effect on ammonia (NH4+) accumulation: dose response, intermediate used alone, compared to control culture
Method: (§1) Several TCA cycle intermediates were selected for a dose response experiment based on commercial availability, either the acid or its sodium salt were purchased from Sigma Aldrich to prepare stock solution feeds to be used in the study. Selected compounds were pyruvic acid, citric acid, α-ketoglutaric acid, fumaric acid, malic acid (or sodium salts), and oxaloacetic acid (no sodium salt available).
(§2) Oxaloacetic acid and malic acid were added to the culture to a final concentration of 5 mM, 10 mM and 15 mM. […] FIG. 1 summarizes the TCA cycle components tested and their location in the pathway. Table 1 summarizes the operation condition of shake flasks in the study as well as feed schedules for the dose response study.
(§3) Control shake flasks were set up every time an arm of the study started. Those control shake flasks were fed-batch cultures without addition of any TCA intermediate. All conditions tested were executed in duplicate shake flasks.
(§4) Shake flask cultures were sampled every other day to determine Total Cell Concentration (TCC), Viable Cell Concentration (VCC), cell viability, metabolite (glucose, lactate, glutamine, glutamate, and ammonia) concentration, and osmolality. The master sample was divided into cell-based assays (TCC, viability assays) and cell-free assays (metabolite concentration, osmolality). Back-up samples (cell-free supernatants) for future reference were produced by centrifuging a portion of the master sample and aliquoting 1.8 mL in Nunc cryovials which were subsequently stored at −70° C. Titer was determined on samples filtered through a 0.22 μm-filter.
(§5) TCC, VCC and viability were determined using an automated cell counter based on the trypan blue exclusion method (ViCell XR, Beckman Coulter). Samples were pre-treated with protease prior to cell counting (TripLE, Life Technologies, USA) using equal volumes of protease stock solution and culture. Incubation to allow dissociation was carried out for 20-25 minutes at 37° C. under gentle shaking Metabolites were measured using Nova Bioprofile (Nova Bioprofile 400); which operates on enzyme-based electrochemical reactions. Osmolality measurement was based on the freezing-point depression method (Advanced Instruments, Model N/A). Filtered cell-free samples were sent to the Bioanalytical Development group for antibody accumulation and binding activity determination (Biacore).

DG44 CHO [2] = assay: Dose response study of TCA intermediates in fed-batch shake flasks: viable cell concentration / viability; conditions: for effect on cell growth / viable cell concentration after addition: dose response, all concentrations tested, compared to control culture
Text: Several TCA cycle intermediates were selected for a dose response experiment based on commercial availability, either the acid or its sodium salt were purchased from Sigma Aldrich to prepare stock solution feeds to be used in the study.
FIG. 1 summarizes the TCA cycle components tested and their location in the pathway. Table 1 summarizes the operation condition of shake flasks in the study as well as feed schedules for the dose response study.
as §3, §4, §5

DG44 CHO [3] = assay: DOE interaction study in shake flasks: ammonia (NH4+) accumulation and production; conditions: for effect on ammonia (NH4+) generation / accumulation: single intermediate at selected concentration
Method: The experiment to test interactions of all the selected components was carried out in two blocks. Each one of the blocks was designed to contain center points and control shake flasks (batch cultures, no addition of any component). […] All conditions were run in duplicates. Shake flask cultures were sampled every other day to determine Total Cell Concentration (TCC), Viable Cell Concentration (VCC), cell viability, metabolite (glucose, lactate, glutamine, glutamate, and ammonia) concentration, and osmolality. The master sample was divided into cell-based assays (TCC, viability assays) and cell-free assays (metabolite concentration, osmolality). Back-up samples (cell-free supernatants) for future reference were produced by centrifuging a portion of the master sample and aliquoting 1.8 mL in Nunc cryovials which were subsequently stored at −70° C. Titer was determined on samples filtered through a 0.22 μm-filter. TCC, VCC and viability were determined using an automated cell counter based on the trypan blue exclusion method (ViCell XR, Beckman Coulter). Samples were pre-treated with protease prior to cell counting (TripLE, Life Technologies, USA) using equal volumes of protease stock solution and culture. Incubation to allow dissociation was carried out for 20-25 minutes at 37° C. under gentle shaking Metabolites were measured using Nova Bioprofile (Nova Bioprofile 400); which operates on enzyme-based electrochemical reactions. Osmolality measurement was based on the freezing-point depression method (Advanced Instruments, Model N/A). Filtered cell-free samples were sent to the Bioanalytical Development group for antibody accumulation and binding activity determination (Biacore).

DG44 CHO [4] = assay: DOE interaction study in shake flasks: cell-specific productivity; conditions: 20 mM, alone
Method: The experiment to test interactions of all the selected components was carried out in two blocks. Each one of the blocks was designed to contain center points and control shake flasks (batch cultures, no addition of any component). […] All conditions were run in duplicates. Shake flask cultures were sampled every other day to determine Total Cell Concentration (TCC), Viable Cell Concentration (VCC), cell viability, metabolite (glucose, lactate, glutamine, glutamate, and ammonia) concentration, and osmolality. The master sample was divided into cell-based assays (TCC, viability assays) and cell-free assays (metabolite concentration, osmolality). […] Titer was determined on samples filtered through a 0.22 μm-filter. TCC, VCC and viability were determined using an automated cell counter based on the trypan blue exclusion method (ViCell XR, Beckman Coulter). […] Incubation to allow dissociation was carried out for 20-25 minutes at 37° C. under gentle shaking Metabolites were measured using Nova Bioprofile (Nova Bioprofile 400); which operates on enzyme-based electrochemical reactions. […] Integral of Viable Cells was calculated using VCC data and applying the trapezoid rule following the formula, Specific Productivity was calculated using the last titer data point divided by last calculated IVC value.

DG44 CHO [5] = assay: Dose response study in shake flasks: cell-specific productivity
Method: as §1, §2, §3
Shake flask cultures were sampled every other day to determine Total Cell Concentration (TCC), Viable Cell Concentration (VCC), cell viability, metabolite (glucose, lactate, glutamine, glutamate, and ammonia) concentration, and osmolality. The master sample was divided into cell-based assays (TCC, viability assays) and cell-free assays (metabolite concentration, osmolality). […] Titer was determined on samples filtered through a 0.22 μm-filter.
(§6) TCC, VCC and viability were determined using an automated cell counter based on the trypan blue exclusion method (ViCell XR, Beckman Coulter). […] Incubation to allow dissociation was carried out for 20-25 minutes at 37° C. under gentle shaking Metabolites were measured using Nova Bioprofile (Nova Bioprofile 400); which operates on enzyme-based electrochemical reactions. […]
Integral of Viable Cells was calculated using VCC data and applying the trapezoid rule following the formula,
Specific Productivity was calculated using the last titer data point divided by last calculated IVC value.

DG44 CHO [6] = assay: Dose response study in shake flasks: lactate accumulation; conditions: 45 mM added to the culture
Method: as §1
Oxaloacetic acid and malic acid were added to the culture to a final concentration of 5 mM, 10 mM and 15 mM. […] FIG. 1 summarizes the TCA cycle components tested and their location in the pathway. Table 1 summarizes the operation condition of shake flasks in the study as well as feed schedules for the dose response study. […]
Shake flask cultures were sampled every other day to determine Total Cell Concentration (TCC), Viable Cell Concentration (VCC), cell viability, metabolite (glucose, lactate, glutamine, glutamate, and ammonia) concentration, and osmolality. […] Titer was determined on samples filtered through a 0.22 μm-filter.
as §6

## O=C(O)CC(O)C(=O)O (stereo not shown) [malic acid]
DG44 CHO [1]; 5 mM
  effect on NH4+ accumulation or production: not a clear effect
DG44 CHO [2]; 5 mM
  decline in viability compared to control shake flasks: no decline in viability
DG44 CHO [2]; 30 mM
  decline in viability: fastest decline in viability
DG44 CHO [2]; dose response experiment
  concentrations toxic to cells: higher than 5 mM
DG44 CHO [2]; high concentration (15 mM and 30 mM)
  cell viability of the culture: induced loss of cell viability
DG44 CHO [3]
  effect on ammonia (NH4+) generation / accumulation: suppress ammonia generation for a few days
DG44 CHO [3]; listed as malate
  effect on ammonia (NH4+) generation / accumulation: partially reduced

## O=C(O)CC(O)(CC(=O)O)C(=O)O [citric acid]
DG44 CHO [2]
  effect on cell growth / viable cell concentration after addition: deleterious effects on culture

## O=C(O)/C=C/C(=O)O [fumaric acid]
DG44 CHO [1]; after Day 10 of culture
  doses needed to stabilize ammonia production (and accumulation): 30 mM and 45 mM
DG44 CHO [1]
  effect on ammonia (NH4+) accumulation: only partial effect
DG44 CHO [2]
  effect on cell growth / viable cell concentration after addition: reduced cell growth
DG44 CHO [3]
  effect on ammonia (NH4+) generation / accumulation: slows down

## O=C(O)CCC(=O)C(=O)O [α-ketoglutaric acid]
DG44 CHO [1]; 15, 30, 45 mM tested
  most effective concentration to reduce production of NH4+: 45 mM
DG44 CHO [1]; all concentrations tested
  cell-specific NH4+ production rate: reduced
DG44 CHO [1]; listed as α-KG
  effect on ammonia (NH4+) accumulation: reduced; also recorded: most effective
DG44 CHO [2]
  effect on cell growth / viable cell concentration after addition: cell division seems to stop
DG44 CHO [4]
  cell-specific productivity: ~30 pg/cell/day
DG44 CHO [5]; used alone (FIGS. 21 and 22)
  reduction of the cell-specific productivity compared to the control: 10-20%
DG44 CHO [3]; 20 mM, alone
  effect on ammonia generation: control ammonia generation
DG44 CHO [3]
  effect on ammonia (NH4+) generation / accumulation: consumed

## CC(=O)C(=O)O [pyruvic acid]
DG44 CHO [6]
  lactate accumulation: around 3 g/L
DG44 CHO [1]; 15 mM
  ammonia accumulated, compared to control shake flasks: slightly higher level than that found in control shake flasks
  effect on the reduction of ammonia: minor effect on the reduction of ammonia
DG44 CHO [1]; 30 mM
  ammonia accumulated to: 8 mM
  ammonia consumption effect lasted to culture day: 8 days
DG44 CHO [1]; 45 mM added on Day 5
  ammonia consumption induced up to culture day: 10 days
  final ammonia concentration: 7 mM
DG44 CHO [1]
  effect on ammonia (NH4+) accumulation: dependent on the dose, but the effect lasts only for a few days
DG44 CHO [5]; 45 mM, control averaged 31 pg/cell/day
  cell-specific productivity: ~24 pg/cell/day
DG44 CHO [3]
  effect on ammonia (NH4+) generation / accumulation: suppress ammonia generation for a few days
DG44 CHO [3]; listed as pyruvate
  effect on ammonia (NH4+) generation / accumulation: partially reduced

## O=C(O)CC(=O)C(=O)O [oxaloacetic acid]
DG44 CHO [1]; 10 mM and 15 mM
  cell-specific production rate and NH4+ accumulation: reduce
DG44 CHO [1]; dose response conclusion
  concentrations in the culture that control ammonia and maintain cell-specific productivity: 5 to 15 mM
DG44 CHO [1]
  effect on ammonia (NH4+) accumulation: reduction in the ammonia accumulation levels
DG44 CHO [2]
  effect on cell growth / viable cell concentration after addition: did not have any deleterious effect on cell growth
DG44 CHO [5]; dose response, compared to control
  effect on final cell-specific productivity: sustained cell-specific productivity values
DG44 CHO [3]
  effect on ammonia (NH4+) generation / accumulation: partially reduced
